pEC50: −log10 of the molar value. *1 amine or outer side, *2 acyl side, *3 side chain or, on linkers, in order; H or OH if unused. Where a SMILES comes first, the peptide text is derived from it. Bridges are numbered along the chain shown (N, C = ends). [ ]: non-standard residue; d: D form. The star is where a group is joined. NMeNva(5-imidazol-1-yl) = CN[C@@H](CCCn1ccnc1)C(=O)O; Phe(4-guanidino) = N=C(N)Nc1ccc(C[C@H](N)C(=O)O)cc1; Ala(pyrimidin-5-yl) = N[C@@H](Cc1cncnc1)C(=O)O; X6 = O=C([C@H](Cc1cnn(C2COC2)c1)N[*:1])[*:2]; Ala(thiazol-5-yl) = N[C@@H](Cc1cncs1)C(=O)O; NMe3Pal(5-F) = CN[C@@H](Cc1cncc(F)c1)C(=O)O; NMePhe(3-Me) = CN[C@@H](Cc1cccc(C)c1)C(=O)O; NMePhe(4-Me) = CN[C@@H](Cc1ccc(C)cc1)C(=O)O; Phe(4-CH2NH2) = NCc1ccc(C[C@H](N)C(=O)O)cc1; X25 = O=C([C@H](Cc1ccc(F)nc1)N[*:1])[*:2]; Leu(4,5-dehydro) = C=C(C)C[C@H](N)C(=O)O; Ethyl(2-pyrrolidin-1-yl) = C1CCN(CC*)C1; Nle(5,5-F2) = CC(F)(F)CC[C@H](N)C(=O)O; X2 = O=C([C@H](Cc1ccccc1F)O[*:1])[*:2]; 1Nal = N[C@@H](Cc1cccc2ccccc12)C(=O)O; Ala(cPent) = N[C@@H](CC1CCCC1)C(=O)O; Phe(2-F) = N[C@@H](Cc1ccccc1F)C(=O)O; X31 = O=C([C@H](CCC1CC1)N[*:1])[*:2]; NMe3Pal = CN[C@@H](Cc1cccnc1)C(=O)O; X1 = O=C(C12CC(CN[*:1])(C1)C2)[*:2]; Ala(cPr) = N[C@@H](CC1CC1)C(=O)O; NMeF = CN[C@@H](Cc1ccccc1)C(=O)O; PhLac = O=C(O)[C@@H](O)Cc1ccccc1; 3Pal = N[C@@H](Cc1cccnc1)C(=O)O; d(αMeC) = C[C@@](N)(CS)C(=O)O; Ahp(2) = CCCCC[C@H](N)C(=O)O; Cba = N[C@@H](CC1CCC1)C(=O)O; hLeu = CC(C)CC[C@H](N)C(=O)O; αMeC = C[C@](N)(CS)C(=O)O; NMeA = CN[C@@H](C)C(=O)O; Nle = CCCC[C@H](N)C(=O)O; Pra = C#CC[C@H](N)C(=O)O; Nva = CCC[C@H](N)C(=O)O
Molecular target: phosphorylation levels of ERK1/2 in AsPC-1 (homozygous KRAS-G12D) cells (Homo sapiens, UniProt P01116, G12D)
Sequence (P01116 1-186 G12D): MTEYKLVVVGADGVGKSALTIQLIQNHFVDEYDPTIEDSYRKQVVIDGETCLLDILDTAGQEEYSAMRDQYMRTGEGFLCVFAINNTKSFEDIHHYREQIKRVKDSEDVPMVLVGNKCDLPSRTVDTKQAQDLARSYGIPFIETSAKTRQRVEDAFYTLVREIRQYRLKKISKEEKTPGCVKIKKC
Assay: Cellular phospho-ERK assay in AsPC-1 cells (Alpha Screen), assay medium without fetal bovine serum;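 also: signal taken as phospho-ERK over total ERK per well, both detected in one multiplex bead assay, EC50 from four-parameter logistic fit of dose-response curves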
Format: cell-based
Settings: phospho-ERK AlphaScreen, 18 h

`CC(C)CC[C@@H]1NC(=O)[C@H](Cc2ccccc2F)NC(=O)[C@H](CC2CC2)NC(=O)[C@H](Cc2cncnc2)NC(=O)[C@H](C)N(C)C(=O)[C@H](Cc2ccccc2)OC(=O)C23CC(CNC(=O)[C@H](Cc4cncc(F)c4)N(C)C1=O)(C2)C3` [compound 282, cyclo(FLac-NMeA-PyrimAla-cPrA-Phe2F-hL-NMe3Pal5F-amBCP)] (cyclo([Ala(cPr)][Phe(2-F)][hLeu][NMe3Pal(5-F)][X1][PhLac][NMeA][Ala(pyrimidin-5-yl)])) showed a pEC50 of 5.60.
With `CCCCC[C@@H]1NC(=O)[C@H](Cc2ccc(OC)cc2)NC(=O)[C@H](CC2CCC2)NC(=O)[C@H](Cc2ccc(N3CCC[C@H]3CN)cc2)NC(=O)[C@H](CCCNC(=N)N)NC(=O)[C@H](Cc2ccccc2)NC(=O)CSC[C@@](C)(C(N)=O)NC(=O)[C@H](Cc2ccccc2)N(C)C1=O` [compound 392, cyclo(F-R-Phe4SamPyrr-cBuA-TyrOMe-Ahp-NMeF-aMeCl-ClAc)] the pEC50 was less than 4.29.
`CCCC[C@@H]1NC(=O)[C@H](Cc2cncnc2)NC(=O)[C@H](C)N(C)C(=O)[C@H](Cc2ccccc2)OC(=O)C23CC(CNC(=O)[C@H](Cc4ccc(C)cc4)N(C)C(=O)[C@H](CCCC)NC(=O)[C@H](Cc4ccccc4F)NC1=O)(C2)C3` [compound 171, cyclo(FLac-NMeA-PyrimAla-Nle-Phe2F-Nle-NMePhe4Me-amBCP)] (cyclo([NMeA][Ala(pyrimidin-5-yl)][Nle][Phe(2-F)][Nle][NMePhe(4-Me)][X1][PhLac])) was tested, and the pEC50 was 6.65.
In the case of `CCCC[C@@H]1NC(=O)[C@H](Cc2cncnc2)NC(=O)[C@H](CCCn2ccnc2)N(C)C(=O)[C@H](Cc2ccccc2)OC(=O)C23CC(CNC(=O)[C@H](Cc4cccnc4)N(C)C(=O)[C@H](CCCC)NC(=O)[C@H](Cc4ccccc4F)OC1=O)(C2)C3` [compound 246, cyclo(FLac-NMeNvalmid-PyrimAla-Nle-F2FLac-Nle-NMe3Pal-amBCP)] (cyclo([NMe3Pal][X1][PhLac][NMeNva(5-imidazol-1-yl)][Ala(pyrimidin-5-yl)][Nle][X2][Nle])), the pEC50 was less than 4.29.
For `C=C(C)C[C@@H]1NC(=O)[C@H](CC2CC2)NC(=O)[C@H](Cc2cncnc2)NC(=O)[C@H](C)N(C)C(=O)[C@H](Cc2ccccc2)OC(=O)C23CC(CNC(=O)[C@H](Cc4ccccc4)N(C)C(=O)[C@H](CCC(C)C)NC1=O)(C2)C3` [compound 287, cyclo(FLac-NMeA-PyrimAla-cPrA-deHLeu-hL-NMeF-amBCP)] (cyclo([Ala(cPr)][Leu(4,5-dehydro)][hLeu][NMeF][X1][PhLac][NMeA][Ala(pyrimidin-5-yl)])), the pEC50 was 4.77.
`C[C@H]1C(=O)N[C@@H](Cc2cnn(C3COC3)c2)C(=O)N[C@@H](CC2CC2)C(=O)N[C@@H](Cc2ccccc2F)C(=O)N[C@@H](CCC(C)(F)F)C(=O)N(C)[C@@H](Cc2ccccc2)C(=O)NCC23CC(C2)(C3)C(=O)O[C@@H](Cc2ccccc2)C(=O)N1C` [compound 291, cyclo(FLac-NMcA-AlaPyzlOx-cPrA-Phe2F-Nle3F2-NMeF-amBCP)] (cyclo([Ala(cPr)][Phe(2-F)][Nle(5,5-F2)][NMeF][X1][PhLac][NMeA][X6])) showed a pEC50 of 5.49.
Compound `CCCC[C@@H]1NC(=O)[C@H](Cc2ccc(CN)cc2)NC(=O)[C@H](CCCNC(=N)N)NC(=O)[C@H](Cc2cccc3ccccc23)NC(=O)CSC[C@](C)(C(=O)O)NC(=O)[C@H](Cc2ccccc2)N(C)C(=O)[C@H](CCCC)NC(=O)[C@H](Cc2ccc(O)cc2)NC1=O` [compound 144, cyclo(1Nal-R-Phe4CH2NH2-Nle-Y-Nle-NMeF-daMeC-ClAc)] ({CH2CO}-[1Nal]R[Phe(4-CH2NH2)][Nle]Y[Nle][NMeF][d(αMeC)]-OH; thioether N-8) has a pEC50 of less than 4.29.
Work on `CCCCC[C@@H]1NC(=O)[C@H](Cc2ccc(OC)cc2)NC(=O)[C@H](CC2CCC2)NC(=O)[C@H](Cc2ccc(N(C)C(=N)NC)cc2)NC(=O)[C@H](CCCNC(=N)N)NC(=O)[C@H](Cc2ccccc2)NC(=O)CSC[C@@](C)(C(N)=O)NC(=O)[C@H](Cc2ccccc2)N(C)C1=O` [compound 382, cyclo(F-R-Phe4GnMeMe-cBuA-TyrOMe-Ahp-NMeF-aMeCl-ClAc)] yielded a pEC50 of less than 4.29.
With `CC(C)CC[C@@H]1NC(=O)[C@H](Cc2ccccc2F)NC(=O)[C@H](CC2CC2)NC(=O)[C@H](Cc2cncnc2)NC(=O)[C@H](C)N(C)C(=O)[C@H](Cc2ccccc2)OC(=O)C23CC(CNC(=O)[C@H](Cc4ccccc4)N(C)C1=O)(C2)C3` [compound 260, cyclo(FLac-NMeA-PyrimAla-cPrA-Phe2F-hL-NMeF-amBCP)] (cyclo([Ala(cPr)][Phe(2-F)][hLeu][NMeF][X1][PhLac][NMeA][Ala(pyrimidin-5-yl)])) the pEC50 was 6.78.
In the case of `CCCC[C@@H]1NC(=O)[C@H](Cc2cccnc2)NC(=O)[C@H](C)N(C)C(=O)[C@H](Cc2ccc(OC)cc2)NC(=O)C23CC(CNC(=O)[C@H](Cc4cccnc4)N(C)C(=O)[C@H](CCCC)NC(=O)[C@H](Cc4ccccc4F)NC1=O)(C2)C3` [compound 169, cyclo(TyrOMe-NMeA-3Pal-Nle-Phe2F-Nle-NMe3Pal-amBCP)] (cyclo([3Pal][Nle][Phe(2-F)][Nle][NMe3Pal][X1]Y(Me)[NMeA])), the pEC50 was less than 4.29.
`CCCC[C@@H]1NC(=O)[C@H](Cc2cccnc2)NC(=O)[C@H](CCCNC(=N)N)NC(=O)[C@H](Cc2ccccc2)OC(=O)C23CC(CNC(=O)[C@H](Cc4ccccc4)N(C)C(=O)[C@H](CCCC)NC(=O)[C@H](Cc4ccccc4F)NC1=O)(C2)C3` [compound 212, cyclo(FLac-R-3Pal-Nle-Phe2F-Nle-NMeF-amBCP)] (cyclo([PhLac]R[3Pal][Nle][Phe(2-F)][Nle][NMeF][X1])) showed a pEC50 of 4.40.
`CCCC[C@@H]1NC(=O)[C@H](Cc2cccnc2)NC(=O)[C@H](C)N(C)C(=O)[C@H](Cc2ccc(F)nc2)NC(=O)C23CC(CNC(=O)[C@H](Cc4cccnc4)N(C)C(=O)[C@H](CCCC)NC(=O)[C@H](Cc4ccccc4F)NC1=O)(C2)C3` [compound 165, cyclo(4F3Pal-NMeA-3Pal-Nle-Phe2F-Nle-NMe3Pal-amBCP)] (cyclo([3Pal][Nle][Phe(2-F)][Nle][NMe3Pal][X1][X25][NMeA])) gave a pEC50 of less than 4.29.
`CCCC[C@@H]1NC(=O)[C@H](Cc2ccc(F)nc2)NC(=O)[C@H](C)N(C)C(=O)[C@H](Cc2ccccc2)OC(=O)C23CC(CNC(=O)[C@H](Cc4ccccc4)N(C)C(=O)[C@H](CCC)NC(=O)[C@H](Cc4ccccc4F)NC1=O)(C2)C3` [compound 234, cyclo(FLac-NMeA-4F3Pal-Nle-Phe2F-Nva-NMeF-amBCP)] (cyclo([NMeA][X25][Nle][Phe(2-F)][Nva][NMeF][X1][PhLac])) was tested, and the pEC50 was less than 4.29.
`C#CC[C@@H]1NC(=O)[C@H](CC2CC2)NC(=O)[C@H](Cc2cncnc2)NC(=O)[C@H](C)N(C)C(=O)[C@H](Cc2ccccc2)OC(=O)C23CC(CNC(=O)[C@H](Cc4ccccc4)N(C)C(=O)[C@H](CCC(C)C)NC1=O)(C2)C3` [compound 286, cyclo(FLac-NMeA-PyrimAla-cPrA-Pra-hL-NMeF-amBCP)] (cyclo([Ala(cPr)][Pra][hLeu][NMeF][X1][PhLac][NMeA][Ala(pyrimidin-5-yl)])) was tested, and the pEC50 was 4.52.
`CCCCC[C@@H]1NC(=O)[C@H](Cc2ccc(OC)cc2)NC(=O)[C@H](CC2CCCC2)NC(=O)[C@H](Cc2ccc(NC(=N)N)cc2)NC(=O)[C@H](CCCNC(=N)N)NC(=O)[C@H](Cc2ccccc2)NC(=O)CSC[C@@](C)(C(N)=O)NC(=O)[C@H](Cc2ccccc2)N(C)C1=O` [compound 366, cyclo(F-R-Phe4Gn-cPeA-TyrOMe-Ahp-NMeF-aMeCl-ClAc)] ({CH2CO}-FR[Phe(4-guanidino)][Ala(cPent)]Y(Me)[Ahp(2)][NMeF][αMeC]-NH2; thioether N-8) gave a pEC50 of 4.91.
Work on `C[C@H]1C(=O)N[C@@H](Cc2cncnc2)C(=O)N[C@@H](CC2CCC2)C(=O)N[C@@H](Cc2ccccc2F)C(=O)N[C@@H](CCC2CC2)C(=O)N(C)[C@@H](Cc2ccccc2)C(=O)NCC23CC(C2)(C3)C(=O)O[C@@H](Cc2ccccc2)C(=O)N1C` [compound 115, cyclo(FLac-NMeA-PyrimAla-cBuA-Phe2F-hcPrA-NMeF-amBCP)] (cyclo([Cba][Phe(2-F)][X31][NMeF][X1][PhLac][NMeA][Ala(pyrimidin-5-yl)])) yielded a pEC50 of 6.36.
Work on `Cc1cccc(C[C@H]2C(=O)NCC34CC(C3)(C4)C(=O)O[C@@H](Cc3ccccc3)C(=O)N(C)[C@@H](C)C(=O)N[C@@H](Cc3cncnc3)C(=O)N[C@@H](CC3CC3)C(=O)N[C@@H](Cc3ccccc3F)C(=O)N[C@@H](CCC(C)(F)F)C(=O)N2C)c1` [compound 275, cyclo(FLac-NMeA-PyrimAla-cPrA-Phe2F-Nle3F2-NMePhe3Me-amBCP)] (cyclo([Ala(cPr)][Phe(2-F)][Nle(5,5-F2)][NMePhe(3-Me)][X1][PhLac][NMeA][Ala(pyrimidin-5-yl)])) yielded a pEC50 of 6.03.
In the case of `CCCCC[C@@H]1NC(=O)[C@H](Cc2ccc(OC)cc2)NC(=O)[C@H](CC2CCC2)NC(=O)[C@H](Cc2cncs2)NC(=O)[C@H](CCCNC(=N)N)NC(=O)[C@H](Cc2ccccc2)NC(=O)CSC[C@@](C)(C(N)=O)NC(=O)[C@H](Cc2ccccc2)N(C)C1=O` [compound 363, cyclo(F-R-TZAla-cBuA-TyrOMe-Ahp-NMeF-aMeCl-ClAc)] ({CH2CO}-FR[Ala(thiazol-5-yl)][Cba]Y(Me)[Ahp(2)][NMeF][αMeC]-NH2; thioether N-8), the pEC50 was less than 4.29.
`CCCCC[C@@H]1NC(=O)[C@H](Cc2ccc(OC)cc2)NC(=O)[C@H](CC2CCC2)NC(=O)[C@H](Cc2ccc(OCCN3CCCC3)cc2)NC(=O)[C@H](CCCNC(=N)N)NC(=O)[C@H](Cc2ccccc2)NC(=O)CSC[C@@](C)(C(N)=O)NC(=O)[C@H](Cc2ccccc2)N(C)C1=O` [compound 383, cyclo(F-R-TyrOEtPyr-cBuA-TyrOMe-Ahp-NMeF-aMeCl-ClAc)] ({CH2CO}-FRY(Ethyl(2-pyrrolidin-1-yl))[Cba]Y(Me)[Ahp(2)][NMeF][αMeC]-NH2; thioether N-8) showed a pEC50 of less than 4.29.
With `CCCC[C@@H]1NC(=O)[C@H](Cc2ccccc2F)NC(=O)[C@H](CCC(C)C)NC(=O)[C@H](Cc2cncnc2)NC(=O)[C@H](C)N(C)C(=O)[C@H](Cc2ccccc2)OC(=O)C23CC(CNC(=O)[C@H](Cc4cccnc4)N(C)C1=O)(C2)C3` [compound 127, cyclo(FLac-NMeA-PyrimAla-hL-Phe2F-Nle-NMe3Pal-amBCP)] (cyclo([NMe3Pal][X1][PhLac][NMeA][Ala(pyrimidin-5-yl)][hLeu][Phe(2-F)][Nle])) the pEC50 was less than 4.29.

Reference: patent publication US20260001914A1, “MACROCYCLIC PEPTIDES TARGETING KRAS” (Merck Sharp & Dohme LLC, priority 2022, published 2026)
